# Measurements reported in US20240245703A1, “TOPICAL APPLICATION OF AGENTS TO REDUCE SUN SENSITIVITY AND IMPROVE TOPICAL PHOTODYNAMIC THERAPY” (Wright State University, priority 2021, published 2024).
# Legend:
# UVB-induced MVP release = assay: MVP release after localized UVB irradiation of volar forearm of human subjects; format: in vivo; settings: human photosensitive vs normal subjects, 1 KJ/m^2 UVB, 4% imipramine immediately after, biopsies 4 h
# From the text: FIG. 22A compares normal subjects to subjects who have active photosensitivity disorders as denoted by positive screening. […] The individual data points are shown in FIG. 22A with the mean±SE of the groups for the UVB+vehicle for the normal and photosensitive subjects.
# HaCaT keratinocytes = assay: PDT (5-ALA + blue light) MVP release in HaCaT keratinocytes; format: cell-based, human; design: PDT-induced MVP release: dose or concentration left out as unconfirmed; settings: HaCaT keratinocytes, imipramine added immediately after PDT, supernatants 4 h
# Protocol: PDT results in acute cellular destruction and inflammation and photosensitivity, as well as delayed immunosuppression. […] Thus, it was of further interest whether experimental PDT of HaCaT keratinocytes generated MVP in vitro. To that end, HaCaT cells were pretreated with 5-ALA alone, or blue light alone, or a 4 hour incubation of 5-ALA in the dark followed by various fluences of blue light, and MVP were measured in the supernatants at 4 hours post blue light. 100 nM CPAF and TPA were used as positive controls for MVP release.
# (§1) For the data shown in FIG. 14, HaCaT keratinocytes were treated with sham (no treatment), 0.1% ethanol vehicle control (VEH), 100 nM TPA, 100 nM CPAF, 1 mM 5-ALA for 4 hours, or 5-ALA followed by various fluences (2.5-20 J/cm^2) of blue light or blue light alone. Levels of MVPs released into supernatants were measured at 4 hours. […] For the data shown in FIG. 15, human skin explants were treated with sham, 100 μL vehicle (90% ethanol+10% DMSO) (VEH), 1 μM TPA, 1 µM CPAF, 1 mM 5-ALA for 4 hours, blue light or 5-ALA+blue light at 20 J/cm^2. After four hours, duplicate 6-mm punch biopsies were obtained, weighed, and MVPs were measured. The data are the mean±SE from 3-4 separate experiments conducted in duplicate. * Denotes statistically significant (P <0.05) changes from sham values.
# (§2) Supernatants were collected at 4 hours and MVP measured. The data are the mean±SE MVP fold change from sham-treated values. For the data shown in FIG. 17, human skin explants were treated as in FIG. 15, with the exception that in some experiments 100 μL of 5 mM IMIP was added post-PDT. MVP were measured in duplicate 6-mm punch biopsies obtained 4 hours post-treatment.
# aSMase = settings: cited from earlier work
# human skin explants = assay: PDT-induced MVP release in human skin explants ex vivo; format: cell-based; settings: 100 μL of 5 mM added post-PDT, 4 h
# Protocol: as §1, §2
# UVB-induced erythema = assay: erythema and temperature response to low-fluence UVB on temple skin of subjects with rosacea; format: in vivo, human
# Protocol: 30 minutes later, a 1 cm area of previously treated skin was irradiated with a low 300 J/m^2 UVB. Erythema was measured before UVB and at various times post-UVB irradiation in blinded fashion with a mexameter and temperature using a thermal imaging camera. […] Values represent the change in erythema from baseline for each subject at 24 hours post-UVB. […] The boxes represent the area treated with UVB. Insets into the photographs are thermal camera images of the UVB-treated skin, with white areas on the thermal imaging camera denoting increased temperature.
# [1] = test system: PDT-induced immunosuppression; assay: contact hypersensitivity (CHS) to DNFB after PDT, ear thickness; format: in vivo, mice; settings: wild-type mice
# From the text: Five days later the mice underwent sensitization with the neoantigen DNFB. To test for local immunosuppression, DNFB was applied to the PDT-treated area. To test for systemic immunosuppression, the DNFB was applied to back skin at least 2 cm away from the PDT-treated area. Nine days later the mice underwent elicitation reactions to DNFB by application to one ear, with vehicle applied to the other ear. One day later the ear thickness was obtained as a measure of CHS reaction and compared to pre-treatment and vehicle-treated values. Some mice were treated with intraperitoneal CPAF as a positive control for systemic immunosuppression.
# For the data shown in FIG. 20, wild-type mice either were injected intraperitoneally with 250 ng CPAF as a positive control for immunosuppression, underwent PDT using 10 J/cm^2 blue light, or received no treatment (SHAM). […] Five days later the mice underwent sensitization with DNFB in PDT-treated (local immunosuppression) or non-PDT-treated skin (systemic immunosuppression). Nine days later the mice underwent elicitation reactions to ears with ear thickness measured at 24 hours. For the data shown in FIG. 21, wild type and aSMase-deficient (Smpd1−/−) mice underwent treatment with CPAF or PDT followed by DNFB sensitization/elicitation reactions as in FIG. 20. The data are mean±SD values. * Denotes statistically significant (P<0.05) changes from sham treatment values using two-way ANOVA.
smiles,measurement,setting,value
CN(C)CCCN1c2ccccc2CCc2ccccc21 [Imipramine],UVB-induced MVP release in forearm skin,UVB-induced MVP release,blocks the increased MVP release selectively in the photosensitive subjects
same,PDT-induced MVP release,HaCaT keratinocytes,blocked PDT-induced MVP release
same,Residual ASM Activity,"aSMase; 10 micromolar, PC12 cells, incubation time 0.5 h, % of corresponding control values",32.6%
same,residual aSMase activity after treatment,aSMase; from Kornhuber et al. 2008,30.6%
same,PDT-induced MVP release,human skin explants,blocked PDT-induced MVP release
same,skin temperature (thermal imaging) after UVB,"UVB-induced erythema; one representative rosacea subject, 4% imipramine + UVB versus vehicle + UVB",less temperature signature
same,erythema response to UVB,"UVB-induced erythema; subjects with rosacea, 0.1 ml 4% imipramine 30 minutes before 300 J/m^2 UVB, 24 hours post-UVB",blocks the erythema response
same,CPAF-induced systemic immunosuppression (CHS to DNFB),"[1]; 250 ng CPAF intraperitoneal, topical imipramine",did not affect the immunosuppressive effects of CPAF
same,PDT-induced local immunosuppression (CHS to DNFB),"[1]; PDT 10 J/cm^2, 100 μL of 5% imipramine topical post-PDT, DNFB on PDT-treated skin",inhibited both local and systemic immunosuppression
same,PDT-induced systemic immunosuppression (CHS to DNFB),"[1]; PDT 10 J/cm^2, 100 μL of 5% imipramine topical post-PDT, DNFB on non-PDT-treated skin",inhibited both local and systemic immunosuppression
